Laboratory results reported in patent publication US9028845B2, “Chimeric immunomodulatory compounds and methods of using the same-IV” (Dynavax Technologies Corporation, priority 2001, dated 2015).

Test system: human PBMCs
Test: Human PBMC cytokine response assay (IFN-γ and IFN-α in cell-free medium by ELISA), with or without cPLGA;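 as to IFN-α (pg/ml) mean: 20 µg/mL compound for 24 hours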;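 as to IFN-γ (pg/ml) mean: 20 µg/mL compound for 24 hours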
Assay type: cell-based
[1] = mean of donors 110, 112, 119, 120, Table 14
[2] = Table 24, mean of donors 28234-28237
[3] = mean of donors 28185-28188, Table 15

Q: How did the IFN-α (Example 58, 0.8 ug/ml, donor 1) turn out when “(5′-TAGTCAT-3′-HEG)2-glycerol-HEG-5′-AACCTTC-3′ [Compound M-3, reference compound]” was run?
A: 52 pg/mL

Q: And the IFN-α (Example 58, 0.8 ug/ml, donor 2)?
A: 52 pg/mL

Q: And the IFN-α (Example 58, 0.8 ug/ml, donor 3)?
A: 52 pg/mL

Q: And the IFN-α (Example 58, 0.8 ug/ml, donor 4)?
A: 52 pg/mL

Q: And the IFN-α mean (Example 58, 0.8 ug/ml, mean of four individuals)?
A: 52 pg/mL

Q: And the IFN-α (Example 58, 4 ug/ml, donor 1)?
A: 52 pg/mL

Q: What about the IFN-α (Example 58, 4 ug/ml, donor 2) of the same substance?
A: 52 pg/mL

Q: What about the IFN-α (Example 58, 4 ug/ml, donor 3) of the same substance?
A: 52 pg/mL

Q: And the IFN-α (Example 58, 4 ug/ml, donor 4)?
A: 52 pg/mL

Q: What about the IFN-α mean (Example 58, 4 ug/ml, mean of four individuals) of the same substance?
A: 52 pg/mL

Q: What about the IFN-α (Example 58, 20 ug/ml, donor 1) of the same substance?
A: 52 pg/mL

Q: What about the IFN-α (Example 58, 20 ug/ml, donor 2) of the same substance?
A: 52 pg/mL

Q: And the IFN-α (Example 58, 20 ug/ml, donor 3)?
A: 52 pg/mL

Q: And the IFN-α (Example 58, 20 ug/ml, donor 4)?
A: 52 pg/mL

Q: And the IFN-α mean (Example 58, 20 ug/ml, mean of four individuals)?
A: 52 pg/mL

Q: What about the IFN-α (Example 59, 0.8 ug/ml, donor 48) of the same substance?
A: 102 pg/mL

Q: What about the IFN-α (Example 59, 0.8 ug/ml, donor 177) of the same substance?
A: 102 pg/mL

Q: What about the IFN-α (Example 59, 0.8 ug/ml, donor 272) of the same substance?
A: 102 pg/mL

Q: And the IFN-α (Example 59, 0.8 ug/ml, donor 273)?
A: 102 pg/mL

Q: And the IFN-α mean (Example 59, 0.8 ug/ml, mean of four donors)?
A: 102 pg/mL

Q: What about the IFN-α (Example 59, 4 ug/ml, donor 48) of the same substance?
A: 102 pg/mL

Q: What about the IFN-α (Example 59, 4 ug/ml, donor 177) of the same substance?
A: 102 pg/mL

Q: And the IFN-α (Example 59, 4 ug/ml, donor 272)?
A: 102 pg/mL

Q: And the IFN-α (Example 59, 4 ug/ml, donor 273)?
A: 102 pg/mL

Q: What about the IFN-α mean (Example 59, 4 ug/ml, mean of four donors) of the same substance?
A: 102 pg/mL

Q: And the IFN-α (Example 59, 20 ug/ml, donor 48)?
A: 102 pg/mL

Q: And the IFN-α (Example 59, 20 ug/ml, donor 177)?
A: 102 pg/mL

Q: And the IFN-α (Example 59, 20 ug/ml, donor 272)?
A: 102 pg/mL

Q: What about the IFN-α (Example 59, 20 ug/ml, donor 273) of the same substance?
A: 102 pg/mL

Q: What about the IFN-α mean (Example 59, 20 ug/ml, mean of four donors) of the same substance?
A: 102 pg/mL

Q: With “5′-TGACTGTGA-3′-HEG-5′-ACGTTCG-3′-HEG-5′-AGATGAT-3′ [Compound C-53]” as the substance, how does the IFN-α (Table 11, donor 28042) read?
A: 0 pg/mL

Q: And the IFN-γ (Table 11, donor 28042)?
A: 39 pg/mL

Q: And the IFN-α (Table 11, donor 28043)?
A: 0 pg/mL

Q: What about the IFN-γ (Table 11, donor 28043) of the same substance?
A: 27 pg/mL

Q: And the IFN-α (Table 11, donor 28044)?
A: 0 pg/mL

Q: And the IFN-γ (Table 11, donor 28044)?
A: 38 pg/mL

Q: And the IFN-α (Table 11, donor 28045)?
A: 5 pg/mL

Q: And the IFN-γ (Table 11, donor 28045)?
A: 26 pg/mL

Q: What about the IFN-α mean (Table 11, mean of donors) of the same substance?
A: 1 pg/mL

Q: What about the IFN-γ mean (Table 11, mean of donors) of the same substance?
A: 32 pg/mL

Q: For “5′-TTCGTTT-3′-HEG-5′-TTCGTTT-3′-HEG-5′-TTCGTTT-3′ [Compound C-46]”, which IFN-α (Table 10, donor 28042) is on record?
A: 24 pg/mL

Q: And the IFN-γ (Table 10, donor 28042)?
A: 399 pg/mL

Q: And the IFN-α (Table 10, donor 28043)?
A: 73 pg/mL

Q: What about the IFN-γ (Table 10, donor 28043) of the same substance?
A: 814 pg/mL

Q: And the IFN-α (Table 10, donor 28044)?
A: 26 pg/mL

Q: What about the IFN-γ (Table 10, donor 28044) of the same substance?
A: 480 pg/mL

Q: What about the IFN-α (Table 10, donor 28045) of the same substance?
A: 3 pg/mL

Q: And the IFN-γ (Table 10, donor 28045)?
A: 63 pg/mL

Q: What about the IFN-α mean (Table 10, mean of donors) of the same substance?
A: 31 pg/mL

Q: What about the IFN-γ mean (Table 10, mean of donors) of the same substance?
A: 439 pg/mL

Q: What about the “IFN-α” value (donor 110, Table 14) of the same substance?
A: 58 pg/mL

Q: And the “IFN-γ” value (donor 110, Table 14)?
A: 1224 pg/mL

Q: And the “IFN-α” value (donor 112, Table 14)?
A: 2 pg/mL

Q: And the “IFN-γ” value (donor 112, Table 14)?
A: 400 pg/mL

Q: And the “IFN-α” value (donor 119, Table 14)?
A: 208 pg/mL

Q: And the “IFN-γ” value (donor 119, Table 14)?
A: 68 pg/mL

Q: What about the “IFN-α” value (donor 120, Table 14) of the same substance?
A: 48 pg/mL

Q: What about the “IFN-γ” value (donor 120, Table 14) of the same substance?
A: 36 pg/mL

Q: And the “IFN-α (pg/ml) mean” value [1]?
A: 79 pg/mL

Q: And the “IFN-γ (pg/ml) mean” value [1]?
A: 432 pg/mL

Q: What about the “immunomodulatory activity (IFN-γ / IFN-α secretion), in words” value (used alone (no cPLGA)) of the same substance?
A: more active than other CG-containing CICs

Q: Which IFN-α (Table 24, donor 28234) does the source give for “(5′-TCGTCGA-3′-HEG)2-glycerol-HEG-5′-AACGTTC-3′ [Compound C-96]” here?
A: 16 pg/mL

Q: And the IFN-γ (Table 24, donor 28234)?
A: 21 pg/mL

Q: What about the IFN-α (Table 24, donor 28235) of the same substance?
A: 120 pg/mL

Q: And the IFN-γ (Table 24, donor 28235)?
A: 239 pg/mL

Q: And the IFN-α (Table 24, donor 28236)?
A: 608 pg/mL

Q: What about the IFN-γ (Table 24, donor 28236) of the same substance?
A: 354 pg/mL

Q: And the IFN-α (Table 24, donor 28237)?
A: 993 pg/mL

Q: And the IFN-γ (Table 24, donor 28237)?
A: 1396 pg/mL

Q: What about the IFN-α mean [2] of the same substance?
A: 434 pg/mL

Q: What about the IFN-γ mean [2] of the same substance?
A: 503 pg/mL

Q: And the “IFN-a” value (donor 28185, Table 15)?
A: 2550 pg/mL

Q: What about the “IFN-g” value (donor 28185, Table 15) of the same substance?
A: 163 pg/mL

Q: And the “IFN-a” value (donor 28186, Table 15)?
A: 446 pg/mL

Q: And the “IFN-g” value (donor 28186, Table 15)?
A: 22 pg/mL

Q: And the “IFN-a” value (donor 28187, Table 15)?
A: 118 pg/mL

Q: What about the “IFN-g” value (donor 28187, Table 15) of the same substance?
A: 195 pg/mL

Q: And the “IFN-a” value (donor 28188, Table 15)?
A: 40 pg/mL

Q: What about the “IFN-g” value (donor 28188, Table 15) of the same substance?
A: 12 pg/mL

Q: What about the “IFN-a (pg/ml) mean” value [3] of the same substance?
A: 788 pg/mL

Q: And the “IFN-g (pg/ml) mean” value [3]?
A: 98 pg/mL

Q: What about the “IFN-a (pg/ml) ×2” value (mean ×2, Table 15) of the same substance?
A: 1577 pg/mL

Q: What about the “IFN-g (pg/ml) ×4” value (mean ×4, Table 15) of the same substance?
A: 392 pg/mL

Q: What about the “IFN-α induction, in words” value (used alone) of the same substance?
A: induced more IFN-α relative to linear CICs with HEG spacers

Q: Which results are given for “5′-TCGTCGT-3′-HEG-5′-TGTCGTT-3′-HEG-5′-TGTCGTT-3′ [Compound C-47]”?
A: IFN-α (Table 10, donor 28042): 20 pg/mL; IFN-γ (Table 10, donor 28042): 112 pg/mL; IFN-α (Table 10, donor 28043): 0 pg/mL; IFN-γ (Table 10, donor 28043): 537 pg/mL; IFN-α (Table 10, donor 28044): 0 pg/mL; IFN-γ (Table 10, donor 28044): 142 pg/mL; IFN-α (Table 10, donor 28045): 0 pg/mL; IFN-γ (Table 10, donor 28045): 17 pg/mL; IFN-α mean (Table 10, mean of donors): 5 pg/mL; IFN-γ mean (Table 10, mean of donors): 202 pg/mL
